According to PMC6600414, “Pharmacokinetics and Tissue Distribution of a Novel Bis-Chelated Gold(I) Diphosphine Compound, Bis(2,3-bis(tert-butylmethylphosphino)Quinoxaline)Aurate(I), in Rats” (Molecules, 2019):

Key:
[1] = Stability of GC20 in rat plasma under different storage conditions; type: in vitro ADME; conditions: for Measured Concentration: n = 6
Protocol: Extraction recovery was calculated by comparing the peak areas of extraction samples and post-extraction spiked samples. Matrix effect was evaluated by comparing the peak areas of post-extraction spiked samples and pure standard solutions. Post-extraction spiked samples were prepared as follows: Adding standard working solution into the mixed solution after protein precipitation of blank plasma to yield equivalent concentrations to corresponding extraction samples. Six replicates at three concentration levels were used for stability validation under a variety of storage and handling conditions. Samples were subjected to three freeze-thaw cycles, frozen at −80 °C for 7 days and 60 days, and storing at room temperature for 12 h. Post-preparative stability was evaluated by reanalyzing post-extraction samples kept in the autosampler at 4 °C for 48 h.

[2] = design: method as in PMID 23362983; conditions: cited from earlier work
[3] = Tissue distribution in rats after single intravenous administration; type: in vivo, SD rats; conditions: single i.v. 2 mg/kg
Protocol: (§1) The analyte of GC20 in rat biological samples was extracted using one-step protein precipitation. 50 μL of rat plasma or rat tissue homogenate was treated with 250 μL methanol containing IS (375 ng/mL). Vortex for 5 min to completely precipitate the proteins contained in the biological matrix. The mixture was then centrifuged at 18,000 rpm for 10 min (Sorvall Biofuge Stratos, Waltham, MA, USA), and 5 μL supernatant was injected for analysis.
Eighteen SD rats (nine male and nine female, 6–8 weeks old) were purchased from Shanghai SLAC Laboratory Animal Co., Ltd. (Shanghai, China). After one week of adaptation, all rats were randomly divided into three groups, each group of six (three male and three female in each group). All rats were administrated GC20 solution at a single dose of 2 mg/kg vial the tail vein. The administered dose for tissue distribution was selected from the intermediate dose of single administration in the pharmacokinetic study. Blood samples were first collected via the ophthalmic veins and then rats were sacrificed to harvest tissues (i.e., heart, liver, spleen, lungs, kidneys, stomach, small intestine, brain, skin, muscle, fat, testes/ovaries, pancreas, thymus, and leg bones) promptly at 10 min, 2 h, or 12 h after dosing. To eliminate blood and other content, the tissues were thoroughly rinsed in water. Each tissue sample was homogenized into ten-fold volumes of water and then stored at −80 °C until further analysis.

[4] = tested on: broad spectrum of cancer cell lines, including cisplatin-resistant ones; design: method as in PMID 23362983; conditions: cited from earlier work
[5] = Pharmacokinetic study in SD rats after intravenous administration (plasma, LC-MS/MS); type: in vivo, Spague-Dawley rats; conditions: for AUC0-∞ / AUC0–t / C5min: rat plasma; for C5min: n = 6; for CL/F / V/F / t1/2: rat
Protocol: as §1
Twenty-four Spague-Dawley rats (twelve male and twelve female, 6–8 weeks old) were purchased from Shanghai SLAC Laboratory Animal Co., Ltd. (Shanghai, China). Animals were housed in an environment which controlled room temperature at 22 ± 2 °C and humidity at 55 ± 5%. Animals received 12/12 h light/dark cycle. Prior to the experiment, animals were fed a standard diet for one week to adapt to the laboratory conditions. Animal welfare and experimental procedures were strictly in accordance with the Guidelines of Animal Experiments of China Pharmaceutical University (Nanjing, China) and approved by the Animal Ethics Committee.
All rats were randomly divided into four groups, each group of six (three male and three female in each group). Three groups consisted of rats that received a single intravenous administration of GC20 at a single dose of 1, 2 or 4 mg/kg, while the fourth group consisted of rats that received a dose of 2 mg/kg on seven consecutive days. The doses for single administration was determined according to the pharmacodynamic doses and toxic doses of GC20 in animals reported in the literature. The dose for multiple administrations was selected from the intermediate dose of a single administration. Dose solutions were prepared with 10% glucose solution. Before administration, rats fasted for 12 h. Blood samples (150 μL) were collected into tubes containing heparin (as an anticoagulant) via the ophthalmic veins at 0 min (i.e., before dosing), 5 min, 10 min, 15 min, 30 min, 1 h, 2 h, 4 h, 6 h, 8 h, 12 h, 24 h, 36 h, 48 h and 72 h. Then, the tubes were centrifuged at 8000 rpm for 5 min to separate the plasma. Plasma samples were then stored at −80 °C until further analysis. The pharmacokinetic parameters were calculated by Phoenix WinNonlin 6.0 (Pharsight, Mountain View, CA, USA).

[6] = post-extraction samples, autosampler 48 h at 4 °C, spiked 50 ng/mL
[7] = post-extraction samples, autosampler 48 h at 4 °C, spiked 1000 ng/mL
[8] = rat plasma, frozen (−80 °C) for 7 days, spiked 50 ng/mL
[9] = rat plasma, frozen (−80 °C) for 7 days, spiked 1000 ng/mL
[10] = rat plasma, frozen (−80 °C) for 60 days, spiked 2 ng/mL
[11] = rat plasma, frozen (−80 °C) for 60 days, spiked 50 ng/mL
[12] = rat plasma, frozen (−80 °C) for 60 days, spiked 1000 ng/mL
[13] = rat plasma, room temperature for 12 h, spiked 2 ng/mL
[14] = rat plasma, room temperature for 12 h, spiked 50 ng/mL
[15] = rat plasma, room temperature for 12 h, spiked 1000 ng/mL
[16] = rat plasma, three freeze-thaw cycles, spiked 2 ng/mL
[17] = rat plasma, three freeze-thaw cycles, spiked 50 ng/mL
[18] = rat plasma, three freeze-thaw cycles, spiked 1000 ng/mL
[19] = multiple dose i.v. 2 mg/kg on seven consecutive days

Measured Concentration ([1]; post-extraction samples, autosampler 48 h at 4 °C, spiked 2 ng/mL): 1.8 ± 0.0 ng/mL | Accuracy (RE%) [1, 6]: −9.5% | Measured Concentration [1, 6]: 45.2 ± 0.1 ng/mL | Accuracy (RE%) [1, 7]: −9.9% | Measured Concentration [1, 7]: 901.3 ± 17.1 ng/mL | Accuracy (RE%) ([1]; rat plasma, frozen (−80 °C) for 7 days, spiked 2 ng/mL): 8.2% | Accuracy (RE%) [1, 8]: 4.1% | Measured Concentration [1, 8]: 52.0 ± 0.9 ng/mL | Accuracy (RE%) [1, 9]: 3.1% | Measured Concentration [1, 9]: 1030.5 ± 15.9 ng/mL | Accuracy (RE%) [1, 10]: −8.9% | Measured Concentration [1, 10]: 1.8 ± 0.1 ng/mL | Accuracy (RE%) [1, 11]: −5.4% | Measured Concentration [1, 11]: 47.3 ± 0.6 ng/mL | Accuracy (RE%) [1, 12]: −3.0% | Measured Concentration [1, 12]: 970.1 ± 27.3 ng/mL | Accuracy (RE%) [1, 13]: −9.2% | Measured Concentration [1, 13]: 1.8 ± 0.1 ng/mL | Accuracy (RE%) [1, 14]: 2.0% | Measured Concentration [1, 14]: 51.0 ± 0.4 ng/mL | Accuracy (RE%) [1, 15]: 2.1% | Measured Concentration [1, 15]: 1020.7 ± 23.6 ng/mL | Accuracy (RE%) [1, 16]: 8.7% | Measured Concentration [1, 16]: 2.2 ± 0.1 ng/mL | Accuracy (RE%) [1, 17]: 2.3% | Measured Concentration [1, 17]: 51.1 ± 0.3 ng/mL | Accuracy (RE%) [1, 18]: 0.2% | Measured Concentration [1, 18]: 1001.8 ± 19.0 ng/mL | stability under typical sample storage and processing conditions ([1]; rat plasma, room temperature 12 h, −80 °C 7 and 60 days, three freeze-thaw cycles, autosampler 4 °C 48 h): stable | tissue with the lowest concentration ([3]; 10 min, 2 h, 12 h): lowest in the brain | tissues with the highest concentrations ([3]; 10 min, 2 h, 12 h): lung, spleen, liver, and pancreas | time of highest tissue concentration ([3]; spleen, liver, kidney and heart): 2 h | AUC0-∞ [5, 19]: 6936.7 ± 1005.4 ng·h/mL | AUC0–t ([5]; multiple dose i.v. 2 mg/kg on seven consecutive days, 0–24 h): 4551.2 ± 440.3 ^# h*ng/mL | C5min [5, 19]: 3645.8 ± 388.3 ng/mL | AUC0-∞ ([5]; single dose i.v. 1 mg/kg): 1457.0 ± 354.5 ng·h/mL | AUC0–t ([5]; single dose i.v. 1 mg/kg, 0–72 h): 1419.9 ± 345.5 ng·h/mL | C5min ([5]; single dose i.v. 1 mg/kg): 1564.6 ± 387.5 ng/mL | AUC0-∞ ([5]; single dose i.v. 2 mg/kg): 2540.5 ± 308.6 ng·h/mL | AUC0–t ([5]; single dose i.v. 2 mg/kg, 0–72 h): 2466.4 ± 298.3 ng·h/mL | C5min ([5]; single dose i.v. 2 mg/kg): 2657.6 ± 632.7 ng/mL | AUC0-∞ ([5]; single dose i.v. 4 mg/kg): 7562.2 ± 2709.6 ng·h/mL | AUC0–t ([5]; single dose i.v. 4 mg/kg, 0–72 h): 7237.1 ± 2695.0 ng·h/mL | C5min ([5]; single dose i.v. 4 mg/kg): 5902.6 ± 1955.2 ng/mL | CL/F [5, 19]: 4.83 ± 0.67 mL/min/kg | V/F [5, 19]: 10.6 ± 1.7 L/kg | t1/2 [5, 19]: 25.1 ± 3.0 h | CL/F ([5]; single dose i.v. 1 mg/kg): 12 ± 3.17 mL/min/kg | V/F ([5]; single dose i.v. 1 mg/kg): 11.89 ± 3.35 L/kg | t1/2 ([5]; single dose i.v. 1 mg/kg): 11.33 ± 0.57 h | CL/F ([5]; single dose i.v. 2 mg/kg): 13.3 ± 1.67 mL/min/kg | V/F ([5]; single dose i.v. 2 mg/kg): 13.00 ± 2.39 L/kg | t1/2 ([5]; single dose i.v. 2 mg/kg): 11.24 ± 0.75 h | CL/F ([5]; single dose i.v. 4 mg/kg): 10 ± 4 mL/min/kg | V/F ([5]; single dose i.v. 4 mg/kg): 11.11 ± 5.28 L/kg | t1/2 ([5]; single dose i.v. 4 mg/kg): 12.58 ± 1.80 h | accumulation after multiple doses ([5]; rats, consecutive administration for 7 days): accumulated in rats after multiple doses | elimination half-life after multiple doses relative to single administration ([5]; rats, i.v. 2 mg/kg for 7 days vs single administration): twice that after a single administration | elimination half-life ([5]; rats, single administration of low, medium and high doses (i.v.)): 11 to 13 h
Structure (SMILES): CC(C)(C)[P+]1(C)c2nc3ccccc3nc2[P+](C)(C(C)(C)C)[Au-3]12[P+](C)(C(C)(C)C)c1nc3ccccc3nc1[P+]2(C)C(C)(C)C (centres unmarked) [GC20, Bis(2,3-bis(tert-butylmethylphosphino)quinoxaline)aurate(I)]
toxicity in animal models as compared to cisplatin [2]: lower toxicity | inhibitory effect on proliferation ([4]; broad spectrum of cancer cell lines, including cisplatin-resistant ones): strong inhibitory effect | selectivity between cancer cells and normal cells [4]: remarkable selectivity
